Experimental data taken from ChEMBL document CHEMBL1152560, “Substituted 2-arylbenzothiazoles as kinase inhibitors: hit-to-lead optimization” (Bioorg Med Chem, 2009).

What was measured:
[1] = biological target: T1, Serine/threonine-protein kinase Nek3 (Homo sapiens) (UniProt P51956); assay: Residual activity of NEK3 at 10 uM by microplate scintillation counting
T1 sequence (whole entry): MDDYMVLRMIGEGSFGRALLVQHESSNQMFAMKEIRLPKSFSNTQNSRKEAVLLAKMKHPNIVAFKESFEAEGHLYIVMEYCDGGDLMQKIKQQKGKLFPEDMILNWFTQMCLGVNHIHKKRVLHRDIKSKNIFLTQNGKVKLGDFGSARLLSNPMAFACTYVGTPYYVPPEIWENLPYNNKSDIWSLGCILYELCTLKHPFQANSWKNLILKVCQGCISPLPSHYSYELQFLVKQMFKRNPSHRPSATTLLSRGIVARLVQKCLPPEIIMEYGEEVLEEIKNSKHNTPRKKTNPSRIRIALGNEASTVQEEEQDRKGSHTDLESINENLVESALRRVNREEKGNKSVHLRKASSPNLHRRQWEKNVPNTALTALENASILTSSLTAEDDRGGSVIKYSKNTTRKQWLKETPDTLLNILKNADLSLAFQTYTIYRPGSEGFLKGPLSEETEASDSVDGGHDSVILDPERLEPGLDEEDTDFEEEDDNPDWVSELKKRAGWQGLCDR

[2] = biological target: Protein kinase C theta type (Homo sapiens) (UniProt Q04759); assay: Residual activity of PKCtheta at 1 uM by microplate scintillation counting
[3] = biological target: T2, MAP kinase-activated protein kinase 5 (Homo sapiens) (UniProt Q8IW41); assay: Residual activity of MAPKAPK5 at 10 uM by microplate scintillation counting
T2 sequence (whole entry): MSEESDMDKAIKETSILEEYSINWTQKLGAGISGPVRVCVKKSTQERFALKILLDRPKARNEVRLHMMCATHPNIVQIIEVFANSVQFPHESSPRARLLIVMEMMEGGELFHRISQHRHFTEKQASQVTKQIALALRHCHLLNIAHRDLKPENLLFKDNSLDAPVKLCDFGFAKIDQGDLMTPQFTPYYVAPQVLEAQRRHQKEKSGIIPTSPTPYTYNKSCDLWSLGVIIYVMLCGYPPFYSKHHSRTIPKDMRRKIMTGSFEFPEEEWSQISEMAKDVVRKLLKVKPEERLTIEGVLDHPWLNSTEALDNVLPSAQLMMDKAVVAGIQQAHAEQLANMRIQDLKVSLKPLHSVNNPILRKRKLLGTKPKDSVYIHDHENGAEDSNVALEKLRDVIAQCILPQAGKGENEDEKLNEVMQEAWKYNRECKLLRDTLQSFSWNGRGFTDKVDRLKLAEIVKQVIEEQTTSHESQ

[4] = biological target: Receptor-interacting serine/threonine-protein kinase 2 (Homo sapiens) (UniProt O43353); assay: Residual activity of RIPK2 at 0.1 uM by microplate scintillation counting
[5] = biological target: Tyrosine-protein kinase Lyn (Homo sapiens) (UniProt P07948); assay: Residual activity of LYN at 10 uM by microplate scintillation counting
[6] = biological target: T3, Aurora kinase C (Homo sapiens) (UniProt Q9UQB9); assay: Residual activity of Aurora-C at 10 uM by microplate scintillation counting
T3 sequence (whole entry): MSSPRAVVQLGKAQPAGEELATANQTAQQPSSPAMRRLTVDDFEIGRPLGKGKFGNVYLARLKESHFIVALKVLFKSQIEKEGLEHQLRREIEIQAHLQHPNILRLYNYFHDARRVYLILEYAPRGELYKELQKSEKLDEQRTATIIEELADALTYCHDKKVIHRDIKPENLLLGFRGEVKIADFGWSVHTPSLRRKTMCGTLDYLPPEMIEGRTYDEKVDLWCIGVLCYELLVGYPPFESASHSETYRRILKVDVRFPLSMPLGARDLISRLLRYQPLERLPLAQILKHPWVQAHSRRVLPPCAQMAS

[7] = biological target: Protein kinase C theta type (Homo sapiens) (UniProt Q04759); assay: Residual activity of PKCtheta at 0.1 uM by microplate scintillation counting
[8] = biological target: T4, Serine/threonine-protein kinase D2 (Homo sapiens) (UniProt Q9BZL6); assay: Residual activity of PRKD2 at 1 uM by microplate scintillation counting
T4 sequence (whole entry): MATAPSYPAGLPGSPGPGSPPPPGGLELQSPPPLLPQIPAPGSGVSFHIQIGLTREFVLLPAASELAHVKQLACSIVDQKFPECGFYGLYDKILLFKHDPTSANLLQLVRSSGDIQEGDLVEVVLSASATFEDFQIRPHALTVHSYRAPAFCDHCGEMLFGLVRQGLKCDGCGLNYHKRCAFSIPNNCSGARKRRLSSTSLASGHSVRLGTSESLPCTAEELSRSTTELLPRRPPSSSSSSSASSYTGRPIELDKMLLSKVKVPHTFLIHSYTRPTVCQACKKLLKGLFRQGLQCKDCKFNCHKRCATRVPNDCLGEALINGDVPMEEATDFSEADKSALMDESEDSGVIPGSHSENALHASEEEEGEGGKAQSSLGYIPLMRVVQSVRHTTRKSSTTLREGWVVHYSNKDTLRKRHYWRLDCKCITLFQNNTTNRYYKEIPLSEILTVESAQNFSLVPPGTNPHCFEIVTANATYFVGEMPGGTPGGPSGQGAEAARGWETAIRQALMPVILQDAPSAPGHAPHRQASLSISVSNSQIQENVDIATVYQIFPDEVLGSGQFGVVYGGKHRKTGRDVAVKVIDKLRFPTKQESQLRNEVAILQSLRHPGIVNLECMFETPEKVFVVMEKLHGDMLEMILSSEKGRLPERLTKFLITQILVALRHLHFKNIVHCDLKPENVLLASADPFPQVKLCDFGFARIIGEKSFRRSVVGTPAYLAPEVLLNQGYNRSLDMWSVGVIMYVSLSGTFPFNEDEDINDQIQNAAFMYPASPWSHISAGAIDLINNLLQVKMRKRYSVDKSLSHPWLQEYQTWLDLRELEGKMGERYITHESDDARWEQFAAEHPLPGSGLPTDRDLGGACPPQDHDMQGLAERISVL

Sequence of Tyrosine-protein kinase Lyn (Homo sapiens) (P07948 2-512 limits assumed): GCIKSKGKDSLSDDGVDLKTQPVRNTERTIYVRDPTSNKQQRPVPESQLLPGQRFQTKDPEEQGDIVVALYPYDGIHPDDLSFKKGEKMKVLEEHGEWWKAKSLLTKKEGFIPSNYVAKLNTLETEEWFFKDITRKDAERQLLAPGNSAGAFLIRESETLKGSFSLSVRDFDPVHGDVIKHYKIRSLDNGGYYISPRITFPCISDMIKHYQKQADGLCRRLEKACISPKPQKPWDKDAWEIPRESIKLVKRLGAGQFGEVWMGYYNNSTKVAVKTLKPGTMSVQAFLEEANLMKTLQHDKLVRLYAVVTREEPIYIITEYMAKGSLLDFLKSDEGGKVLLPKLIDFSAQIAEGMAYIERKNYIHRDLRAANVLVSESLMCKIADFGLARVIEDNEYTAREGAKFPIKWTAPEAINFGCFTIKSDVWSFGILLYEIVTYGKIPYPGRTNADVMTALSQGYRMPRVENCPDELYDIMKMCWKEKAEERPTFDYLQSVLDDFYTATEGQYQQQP
Sequence of Receptor-interacting serine/threonine-protein kinase 2 (Homo sapiens) (O43353 whole entry): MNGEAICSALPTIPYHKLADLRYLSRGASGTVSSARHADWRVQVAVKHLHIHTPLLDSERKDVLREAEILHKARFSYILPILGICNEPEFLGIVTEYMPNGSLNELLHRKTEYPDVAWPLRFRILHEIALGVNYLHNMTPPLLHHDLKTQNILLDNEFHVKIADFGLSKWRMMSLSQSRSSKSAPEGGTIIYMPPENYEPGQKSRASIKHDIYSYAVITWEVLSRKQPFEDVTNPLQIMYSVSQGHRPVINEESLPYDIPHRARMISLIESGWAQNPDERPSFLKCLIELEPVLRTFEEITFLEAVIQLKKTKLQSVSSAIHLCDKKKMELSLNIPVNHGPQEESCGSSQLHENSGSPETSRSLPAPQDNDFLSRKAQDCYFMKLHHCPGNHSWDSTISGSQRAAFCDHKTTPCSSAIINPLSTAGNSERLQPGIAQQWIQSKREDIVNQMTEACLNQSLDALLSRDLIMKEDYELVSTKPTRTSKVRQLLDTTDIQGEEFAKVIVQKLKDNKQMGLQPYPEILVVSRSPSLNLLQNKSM
Sequence of Protein kinase C theta type (Homo sapiens) (Q04759 whole entry, looked up): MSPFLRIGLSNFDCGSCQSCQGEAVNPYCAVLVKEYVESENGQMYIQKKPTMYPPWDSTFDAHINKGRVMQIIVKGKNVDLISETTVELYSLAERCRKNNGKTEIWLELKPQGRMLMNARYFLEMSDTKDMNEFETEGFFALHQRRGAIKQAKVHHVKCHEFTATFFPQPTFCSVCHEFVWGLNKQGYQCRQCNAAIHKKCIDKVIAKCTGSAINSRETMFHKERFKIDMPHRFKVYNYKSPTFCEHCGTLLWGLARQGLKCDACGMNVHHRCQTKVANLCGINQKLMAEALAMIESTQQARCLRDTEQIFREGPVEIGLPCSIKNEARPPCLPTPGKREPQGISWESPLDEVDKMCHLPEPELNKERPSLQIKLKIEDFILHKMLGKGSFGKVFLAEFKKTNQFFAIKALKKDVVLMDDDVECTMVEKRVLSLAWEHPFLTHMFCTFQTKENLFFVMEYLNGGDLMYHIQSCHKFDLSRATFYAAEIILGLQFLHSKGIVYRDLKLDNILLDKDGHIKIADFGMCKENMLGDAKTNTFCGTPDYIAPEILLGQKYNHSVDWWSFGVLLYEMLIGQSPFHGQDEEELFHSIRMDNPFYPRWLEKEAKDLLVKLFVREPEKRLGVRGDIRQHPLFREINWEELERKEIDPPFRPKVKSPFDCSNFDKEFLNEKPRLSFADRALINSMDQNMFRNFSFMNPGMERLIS

residual activity [1] | residual activity [2] | residual activity [3] | residual activity [4] | residual activity [5] | residual activity [6] | residual activity [7] | residual activity [8] | Structure (SMILES)
154% | 111% | 109% | 79% | 142% | 1% | 95% | 94% | COc1cc2c(Oc3ccc(-c4nc5ccccc5s4)cc3)ncnc2cc1OCCCN1CCCC1
132% | 100% | 134% | 72% | 36% | 2% | 95% | 90% | COc1cc2c(Oc3ccc(-c4nc5ccccc5s4)cc3F)ncnc2cc1OCCCN1CCN(C)CC1
145% | 113% | 143% | 78% | 112% | 0% | 100% | 82% | COc1cc2c(Oc3ccc(-c4nc5ccccc5s4)cc3)ncnc2cc1OCCCN1CCN(C)CC1
